From patent US7488712B2, “Histone deacetylase inhibitors and methods for producing the same” (Kyushu Institute of Technology, priority 2002, dated 2009)
Where two headings read alike, the source gives them in different places. Where a SMILES comes first, the peptide text is derived from it. [ ]: non-standard residue; d: D form. Gly((CH2)5SH) = N[C@@H](CCCCCS)C(=O)O

What was measured:
[1] = amide bond, 12-membered ring, HATU/DIEA, DMF
human HDAC1 = molecular target: T1, human HDAC1 (Homo sapiens, UniProt Q13547); assay: In vitro HDAC inhibition activity, [3H]-acetylated histone substrate, HDAC1; format: biochemical
T1 construct: FLAG; made in house; host or cells: 293T cells (transient transfection, anti-FLAG immunoprecipitation, FLAG peptide elution)
Protocol: (§1) To measure HDAC inhibition activity, an HDAC solution was prepared as described below. 1×10^7 of 293T cells were plated on to a 100-mm dish and, after 24 hours, transfected with vectors (1 μg) expressing human HDAC1 and HDAC4 or mouse HDAC6, using LipofectAmine 2000 reagent (Life Technologies, Inc. Gaithersburg, Md.). […] The vectors were introduced for five hours in OPTI-MEM. The medium was then replaced with Dulbecco's modified Eagle's medium (DMEM), and incubated for 19 hours. The cells were washed with PBS, suspended in lysis buffer (50 mM Tris-HCl (pH7.5), 120 mM NaCl, 5 mM EDTA, and 0.5% Nonidet P-40), and sonicated. The supernatant was collected by centrifugation and nonspecific protein was removed using Protein A/G plus agarose beads (Santa Cruz Biotechnologies, Inc.). Anti-FLAG M2 antibodies (Sigma-Aldrich, Inc.) were added to the supernatant of cells expressing HDAC1 or HDAC4. Anti-HA antibodies (clone 3F10, Roche Molecular Biochemicals) were added to the supernatant of cells expressing HDAC6. Reaction in the respective mixtures was carried out at 4° C. for one hour. The resulting reaction mixtures were independently mixed with agarose beads and further reacted at 4° C. for one hour. The agarose beads were washed three times with lysis buffer and then washed once with HD buffer (20 mM Tris-HCl (pH8.0), 150 mM NaCl, 10% glycerol, and a complete protease inhibitor cocktail (Boehringer Mannheim, Germany)). […] The HDAC reaction solution was used for determining HDAC inhibition activity as shown below.
(§2) In vitro HDAC inhibition activity was evaluated as follows: A test compound was dissolved in DMSO and adjusted to 10 mM. This was used as an inhibitor stock solution. […] These reactions were stopped by adding 10 μl HCl. The [^3H] acetic acid excised by the enzyme reaction was extracted with ethyl acetate and subjected to radioactive dose measurement. As a negative control, the same procedure was carried out in which no inhibitor was added to the reaction system. The inhibition activity was expressed as a 50% inhibition concentration (“IC50 (nM)”) of the HDAC activity in the negative control (Tables 1 to 4).

human HDAC4 = molecular target: T2, human HDAC4 (Homo sapiens, UniProt P56524); assay: In vitro HDAC inhibition activity, [3H]-acetylated histone substrate, HDAC4; format: biochemical
T2 construct: FLAG; made in house; host or cells: 293T cells (transient transfection, anti-FLAG immunoprecipitation, FLAG peptide elution)
Protocol: as §1, §2

mouse HDAC6 = molecular target: T3, mouse HDAC6 (Mus musculus, UniProt Q9Z2V5); assay: In vitro HDAC inhibition activity, [3H]-acetylated histone substrate, HDAC6; format: biochemical
T3 construct: HA; made in house; host or cells: 293T cells (transient transfection, anti-HA immunoprecipitation, HA peptide elution)
T3 sequence (Q9Z2V5 1-1149): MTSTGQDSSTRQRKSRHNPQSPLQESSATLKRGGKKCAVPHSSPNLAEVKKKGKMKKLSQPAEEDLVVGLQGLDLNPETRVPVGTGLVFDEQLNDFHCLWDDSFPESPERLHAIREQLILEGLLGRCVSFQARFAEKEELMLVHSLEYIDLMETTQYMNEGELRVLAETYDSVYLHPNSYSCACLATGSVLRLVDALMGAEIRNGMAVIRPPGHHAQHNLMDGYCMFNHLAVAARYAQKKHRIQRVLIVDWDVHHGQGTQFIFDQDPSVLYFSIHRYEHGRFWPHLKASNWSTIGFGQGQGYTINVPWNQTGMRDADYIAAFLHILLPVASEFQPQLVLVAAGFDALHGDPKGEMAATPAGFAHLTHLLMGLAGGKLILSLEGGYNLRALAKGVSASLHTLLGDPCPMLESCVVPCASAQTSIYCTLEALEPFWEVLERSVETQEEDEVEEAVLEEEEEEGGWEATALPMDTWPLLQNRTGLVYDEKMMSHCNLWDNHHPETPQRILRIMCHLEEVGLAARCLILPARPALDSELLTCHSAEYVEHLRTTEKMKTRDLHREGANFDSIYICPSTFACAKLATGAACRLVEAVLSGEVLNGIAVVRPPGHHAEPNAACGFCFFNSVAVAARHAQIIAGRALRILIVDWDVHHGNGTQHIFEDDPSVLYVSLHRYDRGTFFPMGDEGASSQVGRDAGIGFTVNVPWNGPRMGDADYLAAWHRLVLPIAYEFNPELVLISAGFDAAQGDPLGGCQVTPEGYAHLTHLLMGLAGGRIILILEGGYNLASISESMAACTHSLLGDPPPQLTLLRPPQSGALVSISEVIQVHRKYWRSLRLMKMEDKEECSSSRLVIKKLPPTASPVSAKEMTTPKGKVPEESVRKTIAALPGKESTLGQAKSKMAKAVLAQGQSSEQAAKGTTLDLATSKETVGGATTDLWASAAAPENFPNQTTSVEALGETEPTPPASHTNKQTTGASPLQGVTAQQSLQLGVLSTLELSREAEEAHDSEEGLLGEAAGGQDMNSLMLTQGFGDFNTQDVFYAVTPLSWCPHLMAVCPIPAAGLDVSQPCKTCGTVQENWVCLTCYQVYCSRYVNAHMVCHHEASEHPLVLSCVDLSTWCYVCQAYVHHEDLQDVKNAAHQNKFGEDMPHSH
Protocol: as §1, §2

[2] = test system: human wild-type p21 promoter; assay: p21 promoter-inducing activity (luciferase) in MFLL-9 cells; format: cell-based
Protocol: The HDAC inhibition activity in vivo was measured using p21 promoter-inducing activity as an index, as shown below. The MFLL-9 cells employed for the experiments stably maintained fusion genes of human wild-type p21 promoter and luciferase (Dr. B. Vogelstaein). Using phenol red-free DMEM medium comprising 10% FBS, cultivation was carried out in a steam-saturated incubator at 37° C. with 5% carbon dioxide. The MFLL-9 cells were plated at a density of 85,000 cells/well on a 96-well microtiter plate, each in 99 μl of the above-mentioned medium. These were then cultivated for six hours. One μl of test compound solution was added to each well, which was then cultured for another 18 hours.
The intensity of luminescence caused by the product of the enzyme reaction for intracellular luciferase expression was measured using Luc Lite (Packard BioScience Company). A group in which test compounds were not added was used as a negative control group. The values measured for this group were used as a standard. The activities for each concentration of added test compound were expressed relative to the above-mentioned standard value, 1.

in vitro = conditions: human, Cancer-Cell-Selective Cytotoxicity
Protocol: (§3) Human normal lung cells (TIG-3) and human uterine cancer cells (HeLa) were used to test SCOP cytotoxicity. These TIG-3 and HeLa cells were cultured in a DMEM medium comprising 10% FBS at 37° C. in the presence of 5% carbon dioxide in a steam-saturated incubator. The TIG-3 and HeLa cells were plated in 100 μl/well of the above-described medium on a 96-well microtiter plate, at a density of 30,000 cells/well and 10,000 cells/well respectively. This was then cultured for 18 hours. Test compound solution diluted with medium was added to each well and culture was continued for another 48 hours.
(§4) 30 μl of supernatant from each well was transferred to another 96-well microtiter plate (A), and the remaining supernatant was discarded. 100 μl of 0.5% Triton-X/PBS was added to each well to lyse the cells, and 30 μl was then transferred to each respective well of another 96-well microtiter plate (B). 30 μl of LDH-Cytotoxic Test (Wako) substrate solution was added to each well of these 96-well microtiter plates A and B, causing a color reaction. Once the color reaction was sufficiently progressed, it was stopped by adding 60 μl of a quenching solution. Color intensity was measured at OD560 nm using a microplate reader (Softmax). [A/(A+B)] was calculated as the free-LDH ratio. […] The higher the activity value for cancer-cell-selective cell damage (LD50 for normal cells/LD50 for cancer cells), the more that cancer-cell-selective apoptosis was induced.

[3] = test system: human uterine cancer cells (HeLa); assay: in vitro; conditions: 48 h
Protocol: as §3, §4

[4] = Cytotoxicity test (free-LDH ratio), TIG-3; format: cell-based; conditions: human, TIG-3 human normal lung cells
Protocol: This was then cultured for 18 hours.

[5] = from H-dTyr(Me)-Ile-dPro-Ab6-OH, 9.7 mM
[6] = Table 1, X = H (coexisting with DTT)
[7] = Table 1, X = H (coexisting with DTT), 50% of maximum active value for TSA
[8] = Table 3, hybrid with DTT (/DTT)

T1 sequence (Q13547 whole entry): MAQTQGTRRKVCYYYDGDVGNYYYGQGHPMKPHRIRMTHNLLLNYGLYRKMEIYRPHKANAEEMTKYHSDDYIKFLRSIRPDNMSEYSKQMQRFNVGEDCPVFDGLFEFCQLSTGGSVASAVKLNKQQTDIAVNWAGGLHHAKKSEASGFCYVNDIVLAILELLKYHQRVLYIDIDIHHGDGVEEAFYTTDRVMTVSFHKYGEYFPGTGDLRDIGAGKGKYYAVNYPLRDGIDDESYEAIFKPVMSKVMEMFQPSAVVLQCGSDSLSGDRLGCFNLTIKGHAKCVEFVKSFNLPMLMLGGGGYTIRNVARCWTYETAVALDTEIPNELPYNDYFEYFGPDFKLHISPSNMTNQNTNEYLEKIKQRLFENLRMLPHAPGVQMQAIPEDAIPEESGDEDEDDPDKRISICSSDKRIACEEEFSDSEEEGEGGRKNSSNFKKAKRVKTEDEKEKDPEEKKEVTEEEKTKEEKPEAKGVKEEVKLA
T2 sequence (O15379 whole entry partner): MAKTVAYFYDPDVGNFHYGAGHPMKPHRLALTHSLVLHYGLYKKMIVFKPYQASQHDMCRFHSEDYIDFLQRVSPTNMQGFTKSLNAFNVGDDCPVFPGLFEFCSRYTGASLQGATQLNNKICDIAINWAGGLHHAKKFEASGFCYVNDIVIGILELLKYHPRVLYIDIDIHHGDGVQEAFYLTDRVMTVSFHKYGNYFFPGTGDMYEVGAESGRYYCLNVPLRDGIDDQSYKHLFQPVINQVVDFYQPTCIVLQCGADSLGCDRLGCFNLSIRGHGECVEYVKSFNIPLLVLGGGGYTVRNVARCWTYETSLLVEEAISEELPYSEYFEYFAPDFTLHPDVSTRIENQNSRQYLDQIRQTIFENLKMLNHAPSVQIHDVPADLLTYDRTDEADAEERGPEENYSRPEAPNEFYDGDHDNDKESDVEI
T2 sequence (P56524 whole entry): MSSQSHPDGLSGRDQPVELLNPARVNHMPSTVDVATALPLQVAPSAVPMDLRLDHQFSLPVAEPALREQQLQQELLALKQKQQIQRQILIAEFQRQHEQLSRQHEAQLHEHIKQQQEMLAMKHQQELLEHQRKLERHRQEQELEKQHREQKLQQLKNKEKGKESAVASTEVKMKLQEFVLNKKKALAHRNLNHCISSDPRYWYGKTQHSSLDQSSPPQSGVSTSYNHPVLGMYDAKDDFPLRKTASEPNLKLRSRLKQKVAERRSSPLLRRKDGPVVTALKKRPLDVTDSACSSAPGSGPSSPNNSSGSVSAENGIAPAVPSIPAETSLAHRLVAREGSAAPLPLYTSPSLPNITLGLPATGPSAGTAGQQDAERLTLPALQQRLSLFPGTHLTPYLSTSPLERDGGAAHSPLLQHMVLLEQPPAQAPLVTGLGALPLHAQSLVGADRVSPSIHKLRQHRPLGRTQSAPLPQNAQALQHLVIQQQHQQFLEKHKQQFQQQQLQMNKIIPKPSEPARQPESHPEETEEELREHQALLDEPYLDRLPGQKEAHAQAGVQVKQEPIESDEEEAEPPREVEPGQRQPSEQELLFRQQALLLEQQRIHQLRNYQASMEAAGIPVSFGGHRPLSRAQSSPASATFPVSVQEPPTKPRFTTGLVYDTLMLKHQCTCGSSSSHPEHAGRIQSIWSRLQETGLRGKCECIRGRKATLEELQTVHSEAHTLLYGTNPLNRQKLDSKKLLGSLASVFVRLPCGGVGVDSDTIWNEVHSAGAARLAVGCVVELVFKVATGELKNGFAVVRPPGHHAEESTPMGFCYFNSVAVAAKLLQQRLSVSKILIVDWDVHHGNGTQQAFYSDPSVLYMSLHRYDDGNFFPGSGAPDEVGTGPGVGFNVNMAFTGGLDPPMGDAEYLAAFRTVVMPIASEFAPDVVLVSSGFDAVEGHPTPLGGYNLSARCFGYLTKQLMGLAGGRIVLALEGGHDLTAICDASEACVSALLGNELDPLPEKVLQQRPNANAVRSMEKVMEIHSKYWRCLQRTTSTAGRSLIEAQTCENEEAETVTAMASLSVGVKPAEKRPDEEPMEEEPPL

## CC[C@H](C)[C@@H]1NC(=O)[C@@H](Cc2ccc(OC)cc2)NC(=O)[C@H](CCCCOn2nnc3cccnc32)NC(=O)[C@H]2CCCN2C1=O [cyclo(-L-A(OAt)6-D-Tyr(Me)-L-Ile-D-Pro-)]
[1]; [5]
  ring closure, isolated yield: 27%

## CC[C@H](C)[C@@H]1NC(=O)[C@@H](Cc2ccc(OC)cc2)NC(=O)[C@H](CCCCCBr)NC(=O)[C@H]2CCCCN2C1=O [cyclo(-L-Ab7-D-Tyr(Me)-L-Ile-D-Pip-)]
[1]; from H-dTyr(Me)-Ile-dPip-Ab7-OH?, 2.0 mM
  ring closure, isolated yield: 39%

## CC[C@H](C)[C@@H]1NC(=O)[C@@H](Cc2ccc(OC)cc2)NC(=O)[C@H](CCCCCBr)NC(=O)[C@H]2CCCN2C1=O [H-Ab7-dTyr(Me)-Ile-dPro-OH]
[1]; from H-Ab7-dTyr(Me)-Ile-dPro-OH, 10.2 mM
  ring closure, isolated yield: 64%

## CC[C@H](C)[C@@H]1NC(=O)[C@@H](Cc2ccc(OC)cc2)NC(=O)[C@H](CCCCCCCBr)NC(=O)[C@H]2CCCN2C1=O [cyclo(-L-Ab9-D-Tyr(Me)-L-Ile-D-Pro-)]
[1]; from H-Ab9-dTyr(Me)-Ile-dPro-OH, 9.4 mM
  ring closure, isolated yield: 61%

## CC[C@H](C)[C@@H]1NC(=O)[C@@H](Cc2ccc(OC)cc2)NC(=O)[C@H](CCCCCSSC)NC(=O)[C@H]2CCCN2C1=O [SCOP 405, cyclo(-L-Am7(SMe)-D-Tyr(Me)-L-Ile-D-Pro-)]
Human HDAC1; Table 3, hybrid, without DTT
  IC50: 119 nM
Human HDAC4; Table 3, hybrid, without DTT
  IC50: 405 nM
Mouse HDAC6; Table 3, hybrid, without DTT
  IC50: 191 nM
[2]; Table 3, hybrid, without DTT
  EC50: 3260 nM
In vitro; LD50 for normal cells/LD50 for cancer cells (TIG-3/HeLa), without DTT
  selectivity ratio at 48 h: 44.1
[3]
  LD50 (nM) HeLa: 179 nM
[4]; 48 hours, free-LDH ratio 50%, without DTT, read-out: LD50 (nM) TIG-3
  CC50 at 48 h: 7900 nM

## CC[C@H](C)[C@@H]1NC(=O)[C@@H](Cc2ccc(OC)cc2)NC(=O)[C@H](CCCCCS)NC(=O)[C@H]2CCCN2C1=O [SCOP 152] (cyclo([Gly((CH2)5SH)][dY](Me)I[dP]))
Human HDAC1; [6]
  IC50: 4.6 nM
Human HDAC4; [6]
  IC50: 2.06 nM
Mouse HDAC6; [6]
  IC50: 1400 nM
[2]; [7]
  EC50: 309 nM
[2]; Table 5, purified SCOP 152 under DTT-free conditions
  EC50: 3510 nM
In vitro
  selectivity ratio at 48 h: 18.3
[3]
  LD50 (nM) HeLa: 370 nM
[4]; LD50 (nM) TIG-3
  CC50 at 48 h: 6780 nM

## CC[C@H](C)[C@@H]1NC(=O)[C@@H](Cc2ccc(OC)cc2)NC(=O)[C@H](CCCCCCBr)NC(=O)[C@H]2CCCN2C1=O [cyclo(-L-Ab8-D-Tyr(Me)-L-Ile-D-Pro-)]
[1]; from H-Ab8-dTyr(Me)-Ile-dPro-OH, 10.0 mM
  ring closure, isolated yield: 55%

## CC[C@H](C)[C@@H]1NC(=O)[C@@H](Cc2ccc(OC)cc2)NC(=O)[C@H](CCCCOn2nnc3cccnc32)NC(=O)[C@H]2CCCN2C1=O [cyclo(-L-Ab6-D-Tyr(Me)-L-Ile-D-Pro-)]
[1]; [5]
  ring closure, isolated yield: 23%

## CC[C@H](C)[C@@H]1NC(=O)[C@@H](Cc2ccc(OC)cc2)NC(=O)[C@H](CCCCCBr)NC(=O)[C@@H]2CCCN2C1=O [cyclo(-L-Ab7-D-Tyr(Me)-L-Ile-L-Pro-)]
[1]; from H-dTyr(Me)-Ile-Pro-Ab7-OH, 1.02 mM
  ring closure, isolated yield: 21%

## CC[C@H](C)[C@@H]1NC(=O)[C@@H](Cc2ccc(OC)cc2)NC(=O)[C@H](CCCCCSSCCO)NC(=O)[C@H]2CCCN2C1=O [SCOP 404, cyclo(-L-Am7(SMEt)-D-Tyr(Me)-L-Ile-D-Pro-)]
Human HDAC1; [8]
  IC50: 2.44 nM
Human HDAC1; Table 3, hybrid, without DTT
  IC50: 217 nM
Human HDAC4; [8]
  IC50: 13 nM
Human HDAC4; Table 3, hybrid, without DTT
  IC50: 355 nM
Mouse HDAC6; [8]
  IC50: 15400 nM
Mouse HDAC6; Table 3, hybrid, without DTT
  IC50: 201000 nM
[2]; [8]
  EC50: 754 nM
[2]; Table 3, hybrid, without DTT
  EC50: 1360 nM

## CC[C@H](C)[C@@H]1NC(=O)[C@@H](Cc2ccc(OC)cc2)NC(=O)[C@H](CCCCCCS)NC(=O)[C@H]2CCCN2C1=O [SCOP 153]
Human HDAC1; [6]
  IC50: 9.13 nM
Human HDAC4; [6]
  IC50: 91 nM
Mouse HDAC6; [6]
  IC50: 8050 nM
[2]; [7]
  EC50: 9850 nM

## CC[C@H](C)[C@@H]1NC(=O)[C@@H](Cc2ccc(OC)cc2)NC(=O)[C@H](CCCCCBr)NC(=O)[C@@H]2CCCCN2C1=O [cyclo(-L-Ab7-D-Tyr(Me)-L-Ile-L-Pip-)]
[1]; from H-dTyr(Me)-Ile-Pip-Ab7-OH?, 2.0 mM
  ring closure, isolated yield: 61%
